# Marks after values point to notes of the source that are not given here.
# B1: GHKSSSGQSSGYTQHGSGSGHSSSYEQHGSRSGQSSRSEQHGSSSGSSSSYGQHGSGSRQSL (peptide)
# chain: GHKSSSGQSSGYTQHGSGSGHSSSYEQHGSRSGQSSRSEQHGSSSGSSSSYGQHGSGSRQSL
# modifications: Peptide derived from human hornerin (HRNR 933-994)
# B2: GHGRQGSGSRQSPSHVRHGSGSGHSSSHGQHGSGSSYSYSRGHYESGSGQTSGFGQHESGSGQSSGY (peptide)
# chain: GHGRQGSGSRQSPSHVRHGSGSGHSSSHGQHGSGSSYSYSRGHYESGSGQTSGFGQHESGSGQSSGY
# modifications: Peptide derived from human hornerin (HRNR 295-361)
# B3: SQHKSSSGQSSGYSQHGSGSGHSSGYGQHGSRSGQSSRGDRHRSSSGSSSSYGQHGSGSRQSL (peptide)
# chain: SQHKSSSGQSSGYSQHGSGSGHSSGYGQHGSRSGQSSRGDRHRSSSGSSSSYGQHGSGSRQSL
# modifications: Peptide derived from human hornerin (HRNR 232-294)
# B4: LGHGQHGSGSGQSPSPSRGRHGSGSGQSSSYGPYRSGSGWSSSRGPYESGSGHSSGLGHRER (peptide)
# chain: LGHGQHGSGSGQSPSPSRGRHGSGSGQSSSYGPYRSGSGWSSSRGPYESGSGHSSGLGHRER
# modifications: Peptide derived from human hornerin (HRNR 995-1056)
# Tested on: P. aeruginosa ATCC 10145
# Experiment: CFU-assay, P. aeruginosa-cidal activity
# Assay type: cell-based, Pseudomonas aeruginosa
# Conditions: pH 5.5, 0.25% glucose
Molecule,MBC100,MBC90
GRHGSGSGHSSSHGQHGSGSGR (Peptide derived from human hornerin (HRNR 2186-2207)) [HRNR2186-2207],4.7-9.37* μg/ml,
HSSSHGQHGSGSGR (Peptide derived from human hornerin (HR 1-38 HRNR 2664-2677)) [HR 1-38 HRNR2664-2677],>300 µg/mL,
RHGSGLGHSSSHGQH (Peptide derived from human hornerin (HR 1-26 HRNR 2657-2671)) [HR 1-26 HRNR2657-2671],4.7-75* μg/ml,
TAGRRGSGH (Peptide derived from human filaggrin-2 (FLG-2 2097-2105)) [FLG-22097-2105],>300 µg/mL,>300 µg/mL
HTHSGHTHGQAGSHYPESGSSVHER (Peptide derived from human filaggrin-2 (FLG-2 1969-1993)) [FLG-21969-1993],0.3 µg/mL,0.038 µg/mL
GRHGSGSGQSSSYSPYGSGSGWSSSR (Peptide derived from human hornerin (HRNR 2422-2447)) [HRNR2422-2447],>300 µg/mL,
B1,2.35 µg/mL,0.3 µg/mL
B2,0.59 µg/mL,0.15 µg/mL
B3,2.35 µg/mL,0.30 µg/mL
B4,2.35 µg/mL,0.3 µg/mL

# Same assay, conditions: pH 5.5, 1% TSB
Molecule,MBC90,MBC100
HR 2-8: CIDAMP tested alone and in 1:1 mixture with HR 1-8 HRNR2658-2677 (GSGSRQSPSYGR; Peptide derived from human hornerin (HR 2-8)),18.75 µg/mL,>300 µg/mL
GSGSRQSPSHGRHGSGSGR (Modified peptide derived from human hornerin (HR 2-4H HRNR 1132-1150 Y1141H)) [HR 2-4H HRNR1132-1150 Y1141H],75 µg/mL,>300 µg/mL
HGSRSGQSSGGGRHGSSSGSSSH (Modified peptide derived from human hornerin (HR 1-11 E-G E2617G)),0.59 µg/mL,>300 µg/mL
GSGSRQSPSYGRQGSGSGR (Modified peptide derived from human hornerin (HR 2-4Q HRNR 1132-1150 H1144Q)) [HR 2-40 HRNR1132-1150 H1144Q],>300 µg/mL,>300 µg/mL

# From patent publication US11479587B2, “Cationic intrinsically disordered antimicrobial peptides” (priority 2016, dated 2022)
